According to US6228836A, “Permucous preparation” (Mitsubishi-Tokyo Pharmaceuticals, Inc., priority 1997, dated 2001):

Set-up: species or system rats
Conditions: rat, in vivo
Method: Eight-week-old female rats were used, with five per group. The rats were administered 100 μL/kg of the test sample into the nasal cavities once a day, for 7 continuous days. On the 8th day the nasal cavities were extracted, and after dividing them into 3 parts from the nasal cavity opening to the deep end of the nasal cavity, they were fixed with formalin to prepare specimens. After 10-14 days of fixing, a histopathological examination was made of the state of the mucosa, exudation and any bleeding.
Mild irritation was judged when abnormalities were found in the nasal mucosa at sections near the nasal cavity opening, and moderate to severe irritation was judged when the sections where abnormalities were found were further to the deep end. Moderate or greater irritation was also judged when degeneration, ablation, exudation or bleeding was found on the nasal mucosa epithelium at sections near the nasal cavity opening.
As controls there were used physiological saline and commercially available desmopressin (Kyowa Hakko Kogyo, KK.)

| Structure (SMILES) | Nasal mucosa irritation, histopathological finding / judgement (in words) | Nasal cavity mucosa irritation: Mild | Nasal cavity mucosa irritation: Moderate | Nasal cavity mucosa irritation: Normal | Nasal cavity mucosa irritation: Severe |
| --- | --- | --- | --- | --- | --- |
| C[C@H](CCC(=O)O)[C@H]1CC[C@H]2[C@@H]3CC[C@@H]4C[C@H](O)CC[C@]4(C)[C@H]3C[C@H](O)[C@]12C [sodium deoxycholate] | irritating effect on the nasal cavity mucosa |  |  |  |  |
| NC(=O)CC[C@@H]1NC(=O)[C@H](Cc2ccccc2)NC(=O)[C@H](Cc2ccc(O)cc2)NC(=O)CCSSC[C@@H](C(=O)N2CCC[C@H]2C(=O)N[C@H](CCCN=C(N)N)C(=O)NCC(N)=O)NC(=O)[C@H](CC(N)=O)NC1=O [Desmopressin, desmopressin] | No irritation | 0 | 0 | 5 | 0 |
